According to patent US8404688B2, “Nitrone compounds, process of preparation thereof, and use thereof in medicament manufacture” (Jinan University, priority 2008, dated 2013):

How the values were obtained:
[1] = tested on: permanent middle cerebral occlusion; settings: monkeys, Marshall et al. 2001; cited from earlier work
MCA occlusion = settings: male Wistar rats, 2 hour MCA occlusion, given 1 hour after recirculation; at 48 hours and 7 days; Kuroda et al. 1999; cited from earlier work
Cortical neurons = assay: Protection of neuronal cells from NMDA excitotoxic damage; assay type: cell-based; settings: drug 1-1000 μM, NMDA 100 μM, 24 h, FIG. 5
Protocol: Cortical neurons (9×10^4 cells/well) were placed into 96-well cell culture plates, and were incubated at 37° C. for 24 h under 5% CO2. The medium was changed, and the cells were incubated for another 12 h. Drugs at different concentrations 1000 μM, 100 μM, 10 μM, 1 μM) were added, and the cells were incubated at 37° C. for 30 min. NMDA (15 μL) was then added (final concentration of NMDA is 100 μM), and the cells were incubated for 24 h at 37° C. for 24 h under 5% CO2.

cortical neuronal cells = assay: Protection of cortical neuronal cells from H2O2-induced oxidative damage (MTT); assay type: cell-based; settings: cortical neurons, FIG. 4
Protocol: Cortical neurons (9×10^4 cells/well) were placed into 96-well cell culture plates, and were incubated at 37° C. for 24 h under 5% CO2. The medium was changed, and the cells were incubated for another 12 h. Drugs at different concentrations were added, and the cells were incubated at 37° C. for 30 min. Hydrogen peroxide were then added, and the cells were incubated for 24 h at 37° C. for 24 h under 5% CO2. A solution of 3-(4,5-dimethylthiazol-2-ly)-2,5-diphenyl-tetrazoliun bromide (MTT) was added, and the cells were incubated for another 4 h before DMSO was added. After the crystals were completely dissolved (30 min), the absorbance was read at 570 nm with a spectrophotometer (Bio-Rad Model 680, Japan). The results were expressed as the percentage of the control (saline group).

thrombus = assay: Thrombolytic activity in rats (inferior vena cava ligation, dried thrombus weight); assay type: in vivo; settings: TBN 3.25 mg/kg i.v.; rat; FIG. 7
Protocol: The abdomen was then closed. Drugs were administered 2 h after ligation i.v. via the dorsal tail vein. The abdomen was reopened after […] of ligation. The thrombus was removed and dried at 50° C. for 24 h. The dried thrombus was weighted.

MCAo rat stroke model = assay: Protection of stroke in MCAo rats (infarct area, TTC staining); assay type: in vivo; settings: TBN 80 mg/kg i.p. 1 h after occlusion; 2 h ischemia, 24 h reperfusion; FIG. 6
Protocol: Female Sprague-Dawley rats (210-240 g) were anesthetized with 10% chloral hydrate (400 mg/kg) i.p. The right common carotid artery (CCA) was carefully exposed. The occipital branch of the external carotid artery (ECA) was coagulated and the internal carotid artery (ICA) was isolated. A poly-L-lysine-coated nylon suture (0.32 mm in diameter) was inserted into the ECA and advanced retrogradely until the bifurcation of the CCA from where it was advanced a distance of approximately 18-20 mm into the ICA to occlude the MCA. A ligature was tied around the ICA, the incisions were closed, and the animal was extubated.
TMP (50 mg/kg), TBN (80 mg/kg), PBN (65 mg/kg), Eda (62 mg/kg) and saline were administered i.p. 1 h after MAC occlusion, respectively. After 2 h of MCA occlusion, the suture was withdrawn to allow reperfusion. After 24 h of reperfusion, the animals were re-anesthetized with 10% chloral hydrate (400 mg/kg) i.p., and were then decapitated. The brain was quickly removed, rinsed with PBS, and stored in a refrigerator at −20° C. until it was frozen. The brain was sliced with a blade at every 2-mm from the frontal pole, and the slices were stained with 2,3,5-triphenyltetrazolium chloride (TTC, 0.5% in normal saline) for 30 min at 37° C. […] The area of infarction was quantified by the Osiris 4 software, and the results were expressed as the percentage of the total brain section area.

thrombosis = settings: rat arterio- and phlebo-thrombosis models; Liu and Sylvester 1990; cited from earlier work
[2] = intravenous injection, rat; Sheu et al. 1997; cited from earlier work
cerebral ischemia = settings: rat 2-h MCA occlusion by intraluminal suture; Ley et al.; cited from earlier work

Molecule: CC(C)(C)[N+]([O-])=Cc1ccc(S(=O)(=O)[O-])cc1S(=O)(=O)[O-].[Na+].[Na+] [NXY-059, disodium 4-[(tert-butylimino)methyl]benzene-1,3-disulfonate N-oxide]
- reduction of overall amount of brain damage vs saline-treated control [1]: > 50%
- infarct volume (MCA occlusion): significantly reduced infarct volume

Molecule: Cc1nc(C)c(/C=[N+](\[O-])C(C)(C)C)nc1C [TBN, 2-[[(1,1-Dimethylethyl)oxidoimino]methyl]-3,5,6-trimethylpyrazine]
- protection of neuronal cells from NMDA toxicity (Cortical neurons): significantly protected
- effectiveness relative to Eda in protecting cortical neuronal cells from H2O2-induced damage (cortical neuronal cells; H2O2, MTT): approximately 10 fold
- protection of cortical neuronal cells from H2O2-induced damage, compared with TMP and PBN (cortical neuronal cells; drug 30 min before H2O2, 24 h, MTT): more effective than either TMP or PBN
- thrombolytic activity (dried thrombus weight) (thrombus): significant thrombolytic activity
- protective effect in MCAo rat stroke model (area of infarction) (MCAo rat stroke model): significant protective effects

Molecule: Cc1nc(C)c(C)nc1C [TMP, tetramethylpyrazine]
- thrombolytic activity (thrombosis): showed thrombolytic activity
- prolongation of bleeding time [2]: 1.5 times

Molecule: stilbazulenyl nitrone [STAZN]
- neurological deficits compared with vehicle controls (cerebral ischemia): improved neurological deficits
